Assay results reported in patent publication EP2841543B1, “IMPROVEMENTS RELATING TO FABRIC FRESHNESS” (Unilever PLC, priority 2012, dated 2013).

Assay: Production and decomposition of squalene hydroperoxides with Rose Bengal and metal ion catalyst, monitored by HPLC
Description: Aldrich), 10 ml of acetone and 200 µl of Rose Bengal solution (2 mg/ml). Rose Bengal (4,5,6,7-tetrachloro-2',4',5',7'-tetraiodofluorescein) is a singlet-oxygen photobleach. Air was bubbled through the solution over the whole of the 3 hour monitoring period without the metal ion catalyst, under irradiation by a xenon lamp to simulate day-light. […] The reaction monitored by HPLC using via UV. detection at 230 nm and 260 nm and actonitrile was the mobile phase. The first HPLC measurement taken was at t=0 (before addition of Rose Bengal). Typically the squalene peak was eluted at 15 minutes, and the hydroperoxides eluted at times between 2-10 minutes. For the purpose of the experiment the hydroperoxide peaks at 3 and 5.7 minutes after starting the column were monitored for any change in relative peak height.

[1] = time 1.5 h, RB None, IronMeN4py Yes (5 mg catalyst added after 90 minutes)
[2] = time 1.0 h, RB Yes, IronMeN4py None, squalene in acetone, air, xenon lamp, 10 °C
[3] = time 3.0 h, RB Yes, IronMeN4py None, squalene in acetone, air, xenon lamp, 10 °C

SMILES	Relative Peak Height at t=3 minutes [1]	Relative Peak Height at t=5.7 minutes [1]	Relative Peak Height at t=3 minutes [2]	Relative Peak Height at t=5.7 minutes [2]	Relative Peak Height at t=3 minutes [3]	Relative Peak Height at t=5.7 minutes [3]
CC(c1ccccn1)(c1ccccn1)N(Cc1ccccn1)Cc1ccccn1.[Cl-].[Cl-].[Fe+2] [IronMeN4py, iron(II) N,N-bis(pyridine-2-yl-methyl)-1,1-bis(pyridine-2-yl)-1-aminoethane dichloride]	0	300				
O=C1OC2(c3cc(I)c(O)c(I)c3Oc3c2cc(I)c(O)c3I)c2c(Cl)c(Cl)c(Cl)c(Cl)c21 [RB, 4,5,6,7-tetrachloro-2',4',5',7'-tetraiodofluorescein]			600	2100	2000	2100
